Assay results taken from patent US20100056631A1, “ANTIALLERGENIC COMPOSITION” (OPHTECS CORPORATION, priority 2006, published 2010).

Experiments:
[1] = test system: rat suffering from experimental allergenic conjunctivitis; experiment: Evaluation test of itching suppression effect in rat model of chronically allergic conjunctivitis; assay type: in vivo; settings: 5 μl eye drops to both eyes 5 min before local sensitizing reagent (egg albumin), scratching observed 20 min, repeated 8 days, total for 8 days vs test formulation No. 1 (FIG. 1, 2; significant level of 5%)
Description: 0.6 ml of a primary sensitizing reagent (a solution prepared by dissolving 20 mg of egg albumin, 40 mg of aluminum hydroxide gel and 2×10^11 units of an inactivated pertussis antigen in physiological saline) was administered to the footpads of both hands and both feet of a rat by using a 24G injection needle. Five days after the administration of the primary sensitizing reagent, 1 ml of a secondary sensitizing reagent (a solution prepared by dissolving 50 mg of egg albumin in 100 ml of physiological saline) was injected hypodermically into the back portion of the rat by using a 27G injection needle. From 14-th to 42-th days after the administration of the primary sensitizing reagent, 5 μl of drops of a local sensitizing reagent (a solution prepared by dissolving 500 mg of egg albumin in 50 ml of physiological saline) was administered to the both eyes of the rat, and the rat was put in an observation cage to observe the “scratching” of the rat for 20 minutes right after the administration of the ophthalmic solution. The rat which took this action 10 times or more within 20 minutes was used as a “rat suffering from experimental allergenic conjunctivitis” in the experiment. […]

[2] = test system: rat administered with an ophthalmic solution of histamine; experiment: Effect of suppressing histamine-induced pruritus; assay type: in vivo; settings: 5 μl eye drops to both eyes 5 min before histamine 10 μmol/5 μl; scratching observed 20 min (FIG. 4)
Description: In experiments on the evaluation of the effect of suppressing histamine-induced pruritus, test formulation No. 1 (0% of sodium D-3-hydroxybutyrate, referred to as PBS in FIG. 4) and test formulation No. 4 (1.0% of sodium D-3-hydroxybutyrate, referred to as 1% HBA in FIG. 4) shown in Table 1 and Intal (2% of sodium cromoglycate) and Livostin (0.025% of levocabastine hydrochloride) as Comparative formulation were used.
5 μl of an ophthalmic solution of the test formulation or Comparative formulation was administered to the both eyes of each rat each time. Five minutes after this, 10 μmol/5 μl of an ophthalmic solution of histamine was administered to one eye each time to induce pruritus in the rat. […] Meanwhile, Intal which is a chemical mediator isolation inhibitor was not effective (FIG. 4).

## C[C@@H](O)CC(=O)[O-].[Na+] [Sodium D-3-hydroxybutyrate]
[1]
  number of times of scratching (itching suppression effect): suppressed the scratching of the rat suffering from an experimental allergy, dependent upon its volume
[1]; listed as sodium D-3-hydroxybutyrate
  number of times of scratching (itching suppression effect): excellent pruritus suppression effect
[2]
  scratching after histamine ophthalmic solution (effect of suppressing itching): excellent pruritus suppression effect
